Measured values: US20060252786A1, “Nicotinic-opioid synergy for analgesia” (priority 2004, published 2006)
“And” between values parts separate entries of the source, which are not always exact repeats. Identical values can stand only once. Like-named read-outs stand apart in the source and are kept apart here.

Legend:
[1] = tested on: post-incisional pain, injured hind paw; conditions: for Meas (von Frey response): IP, individual measurements
[2] = tested on: tolerance to morphine
[3] = tested on: postoperative pain
Procedure: (§1) This study was a randomized, double blind clinical trial with a 24 hour data collection period. The study was approved by the institutional review board at Columbia University. Written informed consent was obtained from all patients. Women between the ages of 18 and 50, scheduled to have uterine surgery (either myomectomy or hysterectomy) through a low transverse incision were eligible to be included. We chose to only study women in this preliminary study because animal studies have identified gender differences in nicotine's analgesic action 10-12. Patients were excluded who had smoked during the past year, had preexisting pain syndromes, hypertension, or any history of cardiovascular disease. All patients were American Society of Anesthesiologists class 1 or 2. The patients were instructed before surgery that they would be asked about their pain with a numerical analog score where 0 is no pain and 10 is the worst pain that they could imagine. […] No other medications were given in the preoperative period.
(§2) All patients were given a standardized anesthetic as follows: anesthetic premedication was administered in the operating room consisting of 1-2 μg/kg fentanyl and 1 mg vecuronium. Anesthesia was induced with propofol 2 mg/kg and succinylcholine 2 mg/kg. After intubation of the trachea, anesthesia was maintained with a fentanyl infusion of 1-2 μg/kg/hr and isoflurane titrated to adequate anesthetic depth by the clinical anesthesiologist, who was not aware of the treatment group. Muscle relaxation was effected with vecuronium. All patients were given dolasetron 12.5 mg prophylactically to prevent nausea and vomiting. At the completion of surgery, the anesthesiologist was given an opaque sealed container with either a nicotine nasal spray (3 mg—Nicotrol NS, Pharmacia, Peapack, N.J.) or saline nasal spray prepared according to a random number table by the research pharmacy. The study drug was administered by the anesthesiologist as 3 jets in each nostril (3 mg nicotine or an equal volume of saline) at a 45 degree angle after the muscle relaxant was reversed and while the surgeon was closing the fascia.
Five minutes after extubation and every 5 minutes thereafter for 60 minutes, the patient was asked to report the pain that they were experiencing with a numerical analog score from 0-10. A pain report was also obtained at 2 and 24 hours. A PCA pump was inserted into the patient's intravenous circuit prior to emergence from anesthesia. […] No other postoperative analgesic medications were used.
The data were analyzed per protocol. Two subjects from whom informed consent was obtained were not studied for postoperative pain. In one case because of a protocol violation in the standard anesthetic the patient was not randomized and in the second case, the anesthesiologist was not certain of study drug dose. The decision to exclude these patients was made prior to the postoperative period and this no data was obtained.
(§3) In previous studies using analog pain scores the standard deviation was approximately 2 numerical analog pain units. We calculated that in order to detect a difference of 2 numerical analog pain units, with α=0.05 and 80% power we would need to enroll 17 patients per group (StatMate, GraphPad software, San Diego, Calif., USA). 10 patients were enrolled per group as a pilot study requested by our IRB. […] The change in pain scores over time was determined with a One Way Analysis of Variance for repeated measures, where time was considered a continuous variable (Analyse-it for Microsoft Excel; Analyse-it Software, ltd., Leeds, England). All values are reported as mean (SD).

[4] = Procedure: as §1
as §2, with “fascia. […]” for “fascia.”
as §3, with “USA).” for “USA). 10 patients were enrolled per group as a pilot study requested by our IRB.”, “All values are reported as mean (SD).” left out

[5] = remark: listed apart in the source
Procedure: as §2
Blood pressure was measured with a non-invasive automatic oscillometric blood pressure cuff every 5 minutes for the first hour (Agilent Technologies, Andover, Mass.). Heart rate was monitored continuously with a pulse oximeter and electrocardiographic leads and recorded every five minutes for the first hour (Agilent Technologies, Andover, Mass.). All testing was conducted by the same investigator (D.D.). Both the investigator recording data and the nurse administering medication were blinded to treatment group.
as §3

[6] = tested on: post-incisional pain
Procedure: Each of these studies will be nearly identical to the original study (FIG. 5). However, the studies will look at the following dosing paradigms: • 1. Animals will be randomized to receive nicotine 0.25 to 1.5 mg/kg, or placebo 2 hours prior to the hind-paw surgery, or 2 hours after the hind paw surgery (reproducing the original study). […] The doses will be determined in a dose-finding portion of the interaction study. The interaction surface will be modeled and tested to identify any benefit from preoperative administration of nicotine. • 2. […] The study will help to document whether there is any benefit to maintaining nicotine with a constant infusion vs. a simple bolus injection. Expected Results and Potential Issues

[7] = nicotine nasal spray 3 mg, PCA morphine
[8] = tested on: TNF-α, IL2 and IL6; conditions: anticipated; nicotine 0-5 mg/kg after surgical incision
[9] = 3 mg intranasally, non-smoking volunteers; cited from earlier work
[10] = cited from earlier work
[11] = tested on: antinociceptive action of nicotine; conditions: in vivo; cited from earlier work
[12] = tested on: α4β2 type nicotinic receptors; conditions: binds more tightly; cited from earlier work
[13] = tested on: tail flick antinociception; conditions: cited from earlier work
[14] = 3 mg intranasally (Guthrie, 1999)

Structure (SMILES): CN1CC[C@]23c4c5ccc(O)c4O[C@H]2[C@@H](O)C=C[C@H]3[C@H]1C5 [morphine]
- antinociceptive efficacy alone ([1]; 129J strain relatively insensitive to morphine): relatively ineffective alone
- Meas (von Frey response) ([1]; Morphine 0.1 mg/kg, Nicotine 0): 1.8 gms (2×) and 0.75 gms (2×) and 2.95 gms
- Meas (von Frey response) ([1]; Morphine 1 mg/kg, Nicotine 0): 1.95 gms (3×) and 1.7 gms and 0.9 gms and 5.2 gms (2×) and 5.95 gms and 0.75 gms and 2.95 gms
- Meas (von Frey response) ([1]; Morphine 5 mg/kg, Nicotine 0): 0.9 gms (3×) and 1.1 gms (2×) and 7.9 gms (3×) and 7.65 gms (2×)
- Meas (von Frey response) ([1]; Morphine 10 mg/kg, Nicotine 0): 1.1 gms (3×) and 0.45 gms and 2.15 gms
- Meas (von Frey response) ([1]; Morphine 13 mg/kg, Nicotine 0): 4.65 gms (2×) and 7.65 gms (3×)
- Meas (von Frey response) ([1]; Morphine 20 mg/kg, Nicotine 0): 7.9 gms and 4.9 gms (3×) and 8.1 gms
- reduction in peak effect (plateau of analgesic action) ([2]; morphine 2 mg/kg/hr subcutaneous pump, nicotine 1 mg/kg IP or saline, heat withdrawal latency, 18 hour period): 64±14%

Structure (SMILES): CN1CCCC1c1cccnc1 (stereo not drawn) [nicotine]
- peak pain scores (VAS, out of 10) ([3]; 20 non-smoking women after gynecological surgery, reduced from 8 (placebo)): 5
- time at which peak pain score occurred ([3]; after surgery, nicotine nasal spray 3 mg, PCA morphine): 35 min
- peak pain score (numerical analog score 0-10) ([3]; nicotine nasal spray 3 mg at end of surgery, PCA morphine available, first hour, mean (SD)): 5.3 (1.6) units
- pain score twenty-four hours after emergence ([3]; nicotine nasal spray 3 mg single dose, PCA morphine, mean (SD), P<0.01 vs placebo): 1.5 (0.5)
- pain scores during the first hour compared with placebo ([3]; nicotine nasal spray just prior to emergence, P<0.001): lower pain scores at all times during the first hour
- average VAS score in the first hour ([3]; preliminary data set, placebo 6.5): approximately 4.5
- duration of analgesic effect ([3]; single 3 mg intranasal dose, last assessment in the study): at least 24 hours
- morphine used during the first 24 hours after surgery ([4]; nicotine nasal spray 3 mg, difference vs placebo not statistically significant): 41 ± 9 mg
- cumulative morphine utilization during the first hour ([4]; nicotine nasal spray 3 mg, mean (SD), P<0.05 vs control): 6 (5) mg
- overall morphine usage compared to the placebo group ([4]; nicotine nasal spray 3 mg, p<0.01): about half
- reduction in morphine requirement in the first hour ([4]; nicotine vs placebo): 50%
- systolic blood pressure compared with placebo ([5]; first hour after surgery): lower systolic blood pressure
- diastolic blood pressure compared with placebo ([5]; first postoperative hour): no difference
- heart rate compared with placebo ([5]; first postoperative hour): no difference
- systolic blood pressure ([5]; first postoperative hour, mean (SD), placebo 122 (3), P<0.001): 105 (3)
- hemodynamic consequences of a single dose of nicotine ([5]; pilot study): No hemodynamic consequences have been identified
- benefit from pre-operative administration (expected) ([6]; 2 hours prior to hind-paw surgery): no benefit
- analgesic response with constant infusion (expected) ([6]; micro-osmotic pump vs bolus injection): more stable level of analgesic response
- incidence of nausea and vomiting compared with placebo [7]: did not differ
- Meas (von Frey response) ([1]; Morphine 0, Nicotine 0.5 (mg)): 0 gms (4×) and 0.25 gms
- Meas (von Frey response) ([1]; Morphine 0, Nicotine 1 (mg)): 1.95 gms (2×) and 2.7 gms (3×)
- Meas (von Frey response) ([1]; Morphine 0, Nicotine 1.5 (mg)): 2.7 gms (2×) and 4.9 gms (2×) and 4.65 gms
- Meas (von Frey response) ([1]; Morphine 0, Nicotine 2 (mg)): 2.7 gms (3×) and 4.9 gms (2×)
- Meas (von Frey response) ([1]; Morphine 0, Nicotine 3 (mg), upper threshold 15): 15 gms
- Meas (von Frey response) ([1]; Morphine 0, Nicotine 5 (mg), upper threshold 15): 15 gms
- ED20 for primary hyperalgesia ([1]; single IP injection): 1.5 mg/kg
- peak withdrawal latency compared with saline group ([2]; morphine infusion 2 mg/kg/hr, data not shown): higher
- tolerance to morphine after pretreatment with a single dose of nicotine ([2]; nicotine 1.5 mg/kg, morphine continuous infusion 18 hours, P<0.001): Tolerance is reduced
- levels of TNF-α, IL2 and IL6 compared with placebo group (expected) [8]: lower levels
- average increase in systolic blood pressure [9]: 7 mM of mercury
- change in diastolic blood pressure [9]: no change
- change in heart rate [9]: no change
- arterial peak concentration [10, 14]: 100 µM
- steady state venous concentration [10, 14]: 30 µM
- time to peak effect ([10]; intranasal): five
- time until effect is dissipated ([10]; intranasal): about one

Structure (SMILES): C[N+](C)(C)CCCCCC[N+](C)(C)C [hexamethonium]
- effect on the antinociceptive action of nicotine [11]: no effect

Structure (SMILES): CNCC/C=C/c1cccnc1 [metanicotine]
- binding selectivity for α4β2 over α3β4, α7 or muscle type nicotinic receptors [12]: over 10,000 times
- antinociception in the tail flick assay ([13]; dose of 10 mg/kg): midrange antinociception

Structure (SMILES): CCN1C[C@]2(COC(=O)c3ccccc3N3C(=O)C[C@H](C)C3=O)CC[C@H](OC)[C@@]34[C@@H]5C[C@H]6[C@H](OC)[C@@H]5[C@](O)(C[C@@H]6OC)[C@](O)([C@@H](OC)[C@H]23)[C@@H]14 [MLA]
- effect on the antinociceptive response to nicotine ([13]; tail flick assay): no effect
